From ChEMBL document CHEMBL1201862, “PubChem BioAssay data set” (2004)
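Briefly, cells in 96-well plates were exposed to five compound concentrations for 48 h, and endpoints were estimated by linear interpolation. Here, GI50 denotes the concentration required for 50% inhibition of growth.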 The source made the active and inactive calls. Rule as the data show it: active = GI50 up to about 1.1 µM and inactive = higher. Where a SMILES comes first, the peptide text is derived from it. The star is where a group is joined. OSu = O=C1CCC(=O)N1O*; OBn = c1ccc(CO*)cc1; Bn = c1ccc(C*)cc1

Key:
Test in all cases: DTP human tumour cell line panel, 48 h
786-0 = tested on: 786-0
A498 = tested on: A498
CAKI-1 = tested on: CAKI-1
HOP-62 = tested on: HOP-62
IGROV-1 = tested on: IGROV-1
MDA-MB-231 = tested on: MDA-MB-231
MDA-MB-435 = tested on: MDA-MB-435
Malme-3M = tested on: Malme-3M
NCI-H460 = tested on: NCI-H460
SF-539 = tested on: SF-539
SN12C = tested on: SN12C
SNB-19 = tested on: SNB-19
SW-620 = tested on: SW-620
T47D = tested on: T47D
UACC-257 = tested on: UACC-257
UACC-62 = tested on: UACC-62
HOP-92 = tested on: HOP-92
LOX IMVI = tested on: LOX IMVI
NCI-H226 = tested on: NCI-H226
Hs-578T = tested on: Hs-578T

| Structure (SMILES) | GI50 (786-0) | GI50 (A498) | GI50 (CAKI-1) | GI50 (HOP-62) | GI50 (IGROV-1) | GI50 (MDA-MB-231) | GI50 (MDA-MB-435) | GI50 (Malme-3M) | GI50 (NCI-H460) | GI50 (SF-539) | GI50 (SN12C) | GI50 (SNB-19) | GI50 (SW-620) | GI50 (T47D) | GI50 (UACC-257) | GI50 (UACC-62) | GI50 (HOP-92) | GI50 (LOX IMVI) | GI50 (NCI-H226) | GI50 (Hs-578T) |
| --- | --- | --- | --- | --- | --- | --- | --- | --- | --- | --- | --- | --- | --- | --- | --- | --- | --- | --- | --- | --- |
| NC1CC(=O)c2sc(I)cc21 (centres undefined) | > 100 µM (inactive) | > 100 µM (inactive) | 40.3 µM (inactive) | > 100 µM (inactive) | > 100 µM (inactive) | > 100 µM (inactive) | 88.7 µM (inactive) | > 100 µM (inactive) | 69.8 µM (inactive) | > 100 µM (inactive) | > 100 µM (inactive) | > 100 µM (inactive) | 53.6 µM (inactive) | > 100 µM (inactive) | > 100 µM (inactive) | > 100 µM (inactive) | – | – | – | – |
| O=C(O)c1c[nH]cc1C(=O)O | > 100 µM (inactive) | > 100 µM (inactive) | > 100 µM (inactive) | > 100 µM (inactive) | > 100 µM (inactive) | – | – | > 100 µM (inactive) | > 100 µM (inactive) | > 100 µM (inactive) | > 100 µM (inactive) | > 100 µM (inactive) | > 100 µM (inactive) | – | > 100 µM (inactive) | > 100 µM (inactive) | > 100 µM (inactive) | > 100 µM (inactive) | > 100 µM (inactive) | – |
| CN(C)CCN(C)P12(Oc3ccccc3O1)Oc1c(Cl)c(Cl)c(Cl)c(Cl)c1O2 | 54.6 µM (inactive) | 60.5 µM (inactive) | – | 45 µM (inactive) | 45.4 µM (inactive) | 69.8 µM (inactive) | 50.9 µM (inactive) | 46.6 µM (inactive) | 37.2 µM (inactive) | – | 42.6 µM (inactive) | 56.6 µM (inactive) | 47.4 µM (inactive) | 59.8 µM (inactive) | 29.5 µM (inactive) | 33.3 µM (inactive) | 22.1 µM (inactive) | 63 µM (inactive) | > 100 µM (inactive) | – |
| CC(C)CC(NC(=O)C(COc1ccc([N+](=O)[O-])cc1)Cc1ccccc1)C(=O)Nc1ccccc1 (centres undefined) | 7.08 µM (inactive) | 24 µM (inactive) | 28.2 µM (inactive) | – | 7.8 µM (inactive) | 21.1 µM (inactive) | 14.1 µM (inactive) | 5.02 µM (inactive) | 4.29 µM (inactive) | 6.68 µM (inactive) | 37.5 µM (inactive) | 7.76 µM (inactive) | 24.3 µM (inactive) | – | 25.7 µM (inactive) | 11.1 µM (inactive) | 13.3 µM (inactive) | 48.6 µM (inactive) | 3.44 µM (inactive) | – |
| CC(C)CC(NC(=O)C(N)CCC(=O)OCc1ccccc1)C(=O)NC(COCc1ccccc1)C(=O)NC(Cc1ccccc1)C(=O)ON1C(=O)CCC1=O (centres undefined) (H-E(OBn)LS(Bn)F-OSu; configuration not given here) | 39.1 µM (inactive) | – | 28.8 µM (inactive) | – | 23.4 µM (inactive) | 18.1 µM (inactive) | 33 µM (inactive) | 29.2 µM (inactive) | 32.7 µM (inactive) | – | 29.8 µM (inactive) | 30.5 µM (inactive) | 37.8 µM (inactive) | – | 28.3 µM (inactive) | 26.1 µM (inactive) | 15 µM (inactive) | 18.2 µM (inactive) | – | 26.4 µM (inactive) |
| COc1ccc(-c2cc(-c3ccc(Nc4ccnc5cc(Cl)ccc45)cc3)nc(N)c2C#N)c2ccccc12 | > 100 µM (inactive) | > 100 µM (inactive) | > 100 µM (inactive) | > 100 µM (inactive) | > 100 µM (inactive) | > 100 µM (inactive) | > 100 µM (inactive) | > 100 µM (inactive) | > 100 µM (inactive) | > 100 µM (inactive) | > 100 µM (inactive) | > 100 µM (inactive) | > 100 µM (inactive) | > 100 µM (inactive) | > 100 µM (inactive) | > 100 µM (inactive) | – | > 100 µM (inactive) | > 100 µM (inactive) | – |
| CCN(CCCl)CCNc1c2ccccc2nc2ccc(OC)cc12 | 0.254 µM (active) | 1.78 µM (inactive) | 0.361 µM (active) | 1.12 µM (active) | 0.463 µM (active) | – | – | 0.861 µM (active) | 0.273 µM (active) | 0.502 µM (active) | 0.548 µM (active) | 1.41 µM (inactive) | 0.132 µM (active) | – | 1.52 µM (inactive) | 0.551 µM (active) | 0.822 µM (active) | 0.31 µM (active) | 0.6 µM (active) | – |
| Cc1ccc(S(=O)(=O)NC(=O)Nc2ccc(C(=O)O)c(O)c2)cc1 | > 100 µM (inactive) | 68.2 µM (inactive) | > 100 µM (inactive) | > 100 µM (inactive) | – | > 100 µM (inactive) | > 100 µM (inactive) | > 100 µM (inactive) | > 100 µM (inactive) | > 100 µM (inactive) | – | > 100 µM (inactive) | > 100 µM (inactive) | – | – | > 100 µM (inactive) | > 100 µM (inactive) | > 100 µM (inactive) | > 100 µM (inactive) | > 100 µM (inactive) |
| COc1cc(/C=C(\OC(C)=O)c2ccc3c(c2)OCO3)cc(OC)c1OC | 29 µM (inactive) | 16.1 µM (inactive) | 22.1 µM (inactive) | 20 µM (inactive) | 10.9 µM (inactive) | – | – | 23 µM (inactive) | 33 µM (inactive) | 18 µM (inactive) | 20.2 µM (inactive) | 28.2 µM (inactive) | 28.5 µM (inactive) | – | 18.4 µM (inactive) | 16.6 µM (inactive) | 15.6 µM (inactive) | 16.1 µM (inactive) | 11.5 µM (inactive) | – |
| N#CC(CC(=O)O)=C(c1ccccc1)c1ccccc1 | > 100 µM (inactive) | > 100 µM (inactive) | > 100 µM (inactive) | > 100 µM (inactive) | > 100 µM (inactive) | > 100 µM (inactive) | > 100 µM (inactive) | > 100 µM (inactive) | > 100 µM (inactive) | > 100 µM (inactive) | > 100 µM (inactive) | > 100 µM (inactive) | > 100 µM (inactive) | – | > 100 µM (inactive) | > 100 µM (inactive) | > 100 µM (inactive) | > 100 µM (inactive) | > 100 µM (inactive) | 70.1 µM (inactive) |
| CC(C)c1cc(C(C)C)c(Cl)c(Cl)c1O.CC(C)c1cc(Cl)c(O)c(C(C)C)c1Cl | 34.5 µM (inactive) | – | 20.5 µM (inactive) | 32.7 µM (inactive) | 21.6 µM (inactive) | 20.1 µM (inactive) | 21.4 µM (inactive) | 24.8 µM (inactive) | 30 µM (inactive) | 20 µM (inactive) | 22.4 µM (inactive) | 23 µM (inactive) | 25.8 µM (inactive) | – | 20 µM (inactive) | 19.6 µM (inactive) | 10.5 µM (inactive) | 32.3 µM (inactive) | – | 16.6 µM (inactive) |
| COc1ccc2c(c1)C/C(=C\c1ccc(O)c(OC)c1)C2=O | > 100 µM (inactive) | > 100 µM (inactive) | > 100 µM (inactive) | – | > 10 µM (inactive) | – | – | – | > 100 µM (inactive) | > 100 µM (inactive) | > 100 µM (inactive) | > 100 µM (inactive) | > 100 µM (inactive) | – | – | > 100 µM (inactive) | – | > 100 µM (inactive) | > 100 µM (inactive) | > 100 µM (inactive) |
| O=C(Nc1ccc([N+](=O)[O-])cc1)C1C(=O)C(=O)N(c2ccc([N+](=O)[O-])cc2)C1=O (centres undefined) | 67.1 µM (inactive) | > 100 µM (inactive) | 74.6 µM (inactive) | > 100 µM (inactive) | > 100 µM (inactive) | – | – | > 100 µM (inactive) | 34.5 µM (inactive) | 94.8 µM (inactive) | > 100 µM (inactive) | > 100 µM (inactive) | 17.6 µM (inactive) | – | > 100 µM (inactive) | 2.72 µM (inactive) | > 100 µM (inactive) | 16.1 µM (inactive) | > 100 µM (inactive) | – |
| O=C(O)CCC(NC(=O)c1ccc(CNc2nc3ccccc3nc2C(=O)O)cc1)C(=O)O (centres undefined) | > 100 µM (inactive) | > 100 µM (inactive) | – | > 100 µM (inactive) | > 100 µM (inactive) | > 100 µM (inactive) | > 100 µM (inactive) | > 100 µM (inactive) | – | – | > 100 µM (inactive) | > 100 µM (inactive) | > 100 µM (inactive) | – | > 100 µM (inactive) | > 100 µM (inactive) | – | > 100 µM (inactive) | > 100 µM (inactive) | > 100 µM (inactive) |
| COC(=O)CCC(=O)Nc1cc(C)ccc1C | > 100 µM (inactive) | > 100 µM (inactive) | > 100 µM (inactive) | > 100 µM (inactive) | > 100 µM (inactive) | – | – | > 100 µM (inactive) | > 100 µM (inactive) | > 100 µM (inactive) | > 100 µM (inactive) | > 100 µM (inactive) | > 100 µM (inactive) | – | > 100 µM (inactive) | > 100 µM (inactive) | > 100 µM (inactive) | > 100 µM (inactive) | > 100 µM (inactive) | – |
| CN1C(CC(O)c2ccccc2)CCCC1CC(O)(c1ccccc1)c1ccccc1 (centres undefined) | 15.7 µM (inactive) | – | 75.2 µM (inactive) | 14.3 µM (inactive) | 17.2 µM (inactive) | 22.6 µM (inactive) | – | 18.2 µM (inactive) | – | 13.6 µM (inactive) | 17.8 µM (inactive) | 17.1 µM (inactive) | 19.4 µM (inactive) | 21 µM (inactive) | 17.6 µM (inactive) | 21 µM (inactive) | – | 20.3 µM (inactive) | 21.1 µM (inactive) | – |
| CN1CCCNCCN(CCc2ccccn2)CCCN(C)CC1 | 24.2 µM (inactive) | > 100 µM (inactive) | > 100 µM (inactive) | > 100 µM (inactive) | > 100 µM (inactive) | – | – | > 100 µM (inactive) | > 67.3 µM (inactive) | > 100 µM (inactive) | > 100 µM (inactive) | > 100 µM (inactive) | > 33.8 µM (inactive) | – | > 100 µM (inactive) | > 100 µM (inactive) | > 100 µM (inactive) | > 50.1 µM (inactive) | > 100 µM (inactive) | – |
